In patent US5866588A, “Imidazopyridine derivatives” (British Biotech Pharmaceuticals Ltd., priority 1995, dated 1999):
pIC50: −log10 of the molar value.

What was measured:
[1] = system: Histamine Induced Bronchoconstriction; assay: Histamine Induced Bronchoconstriction in the Anaesthetised Guinea Pig; assay type: in vivo, guinea pig (Dunkin-Hartley); details: p.o.; for ED50: Cavia porcellus, po, 1 h, histamine infusion 10 μgkg^-1 min^-1 one hour after dosing
From the text: Histamine Induced Bronchoconstriction in the Anaesthetised Guinea Pig
(§1) Following oral administration of test compound or vehicle by oral gavage, male Dunkin-Hartley guinea pigs (350-400 g) were anaesthetised by intraperitoneal injection of 60 mgkg^-1 sodium pentobarbitone (Sagatal, May & Baker UK). Through a midline incision of the neck, the trachea was cannulated and connected to a small animal respirator (Harvard, UK). Animals were artificially ventilated at a rate of 30 breaths per minute with a tidal volume of 8-10 ml to give a resting tracheal inflation pressure of 15 mmHg as measured by a physiological pressure transducer (type P23XL, Spectramed USA) connected to a side arm of the respiratory circuit.
A jugular vein was cannulated for the administration of propranolol and for the infusion of histamine. A carotid artery was cannulated for the measurement of arterial blood pressure via a physiological pressure transducer (type P23XL, Spectramed USA). Blood pressure and tracheal inflation pressure were recorded on a thermal array chart recorder (type TA4000, Gould Electronics UK).
Following a suitable equilibration period, propranolol (1 mgkg^-1 i.v. & 3 mgkg^-1 s.c. Sigma Chemical Co. UK) was administered to inhibit any resulting catecholamine release following histamine administration.
Histamine infusion (10 μgkg^-1 min^-1 at a rate of 10 mlhr^-1 using a perfusion pump type Perfuser securer FT, B. Braun Germany) was started at the one hour time point following oral administration of the test compound or vehicle. Changes in tracheal inflation pressure and blood pressure of drug treated animals were compared with changes from vehicle treated animals and ED50 values determined. One dose of test compound was investigated per animal.

[2] = system: PAF Induced Bronoconstriction; assay: PAF Induced Bronoconstriction in the Anaesthetised Guinea Pig; assay type: in vivo, guinea pig (Dunkin-Hartley); details: Cavia porcellus, po, 1 h; p.o.; PAF 100 ngkg^-1 i.v. bolus one hour after dosing; read-out: ED50 (PAF induced bronchoconstriction)
Protocol: PAF Induced Bronoconstriction in the Anaesthetised Guinea Pig
as §1, with “or vehicle,” for “or vehicle by oral gavage,”, “(Harvard, UK)” for “(Harvard, UK).”, “tidal” for “tidal volume”
A jugular vein was cannulated for the administration of a bolus dose of propranolol and for the later administration of bolus PAF. A carotid artery was cannulated for the measurement of arterial blood pressure via a physiological pressure transducer (type P23XL, Spectramed USA). Blood pressure and tracheal inflation pressure were recorded on a thermal array chart recorder (type TA4000, Gould Electronics UK).
Propranolol (1 mgkg^-1 i.v. & 3 mgkg^-1 s.c. Sigma Chemical Co. UK) was administered 10 minutes before PAF in order to prevent the bronchodilatory activity of catecholamines which may be released in response to PAF administration. PAF (100 ngkg^-1 i.v. bolus) was administered at the one hour time point following oral administration of the test compound or vehicle.
Changes in tracheal inflation pressure and blood pressure of drug treated animals were compared with changes from vehicle treated animals and percentage inhibition determined. One dose of test compound was investigated per animal.

[3] = system: PAF-Induced Platelet Aggregation; assay: Inhibition of PAF-Induced Platelet Aggregation; assay type: cell-based, rabbit (New Zealand White); details: Oryctolagus cuniculus; rabbit platelet-rich plasma, PAF 100 ngml^-1
Protocol: Inhibition of PAF-Induced Platelet Aggregation
Male New Zealand White rabbits (3.0-3.5 kg) were anaesthetised by intravenous administration of sodium pentobarbitone, 18 mg.ml^-1, via a marginal ear vein. The trachea was exposed and connected to a respiratory pump (Harvard UK) to provide artificial ventilation. A carotid artery was exposed and cannulated and the animal was exsanguinated. Whole blood was collected in a syringe containing tri-sodium citrate (3.8% w/v) to a ratio of 1 part citrate:9 parts blood.
Collected blood was centrifuged at 180×g for 15 minutes at room temperature (21° C.) to prepare platelet-rich plasma (PRP). The remaining blood was then centrifuged at 1800×g for 10 minutes at room temperature to obtain platelet poor plasma (PPP).
Platelet count of the PRP was measured using a Technicon H1 blood cell differential analyser (Bayer Diagnostics UK) and adjusted with PPP to obtain a final platelet count of 500,000 platelets per μl of plasma, this being the normal physiological platelet count for rabbits. Corrected PRP was left to equilibrate at room temperature for 30 minutes before use.
Aggregation studies were carried out using a 4-channel aggregometer (PAP-4C, BioData USA) as follows: 400 μl aliquots of PRP were placed in siliconised cuvettes and incubated to 37° C. for 1 to 2 minutes in the heating block of the aggregometer. Baseline (100% aggregation) was set up using PPP (500 μl in a siliconised cuvette). The PRP was placed into a measuring well of the aggregometer, and a stirrer bar was added. The sample was stirred at 1000 rpm. The machine was activated to set the 0% aggregation level. Test compound or vehicle (50 μl) was added to the PRP, where any effects on the baseline was noted. PAF (100 ngml^-1 as 50 μl aliqout) was added to the PRP 3 minutes after test compound or vehicle. Aggregation was measured for a further 4 minutes after PAF addition and the maximum aggregation over the 4 minutes was recorded.
The investigation of different concentrations of test compound was performed in triplicate. Data were expressed as […] of the sample and test compound data were compared to vehicle data to obtain % inhibition of the PAF-induced aggregation from which IC50 values could be determined.
PAF was made up in sterile saline (NaCl 0.9% w/v) containing BSA (0.25% w/v) from an initial stock solution (10 mgml^-1 in EtOH). Test compounds were made up as 1×10^-3 M stock solutions in sterile saline containing molar equivalents of 1N HCl (v/v) or in DMSO.
In the results which follow, a comparison compound A was included. Compound A was prepared as described in EP-A-260613 (G. D. Searle), but is not part of the present invention. As appears from the results of the comparison, compounds of this invention, all of which incorporate a fragment capable of H1 antagonist activity, are observed to show improved PAF antagonist activity over compound A.

[4] = biological target: T1, histamine-1 receptors on Hela-S3 cells (Homo sapiens, UniProt P35367); assay: Inhibition of [^3 H]-Pyrilamine Binding to Histamine-1 Receptors on Hela-S3 Cells; details: 0.5 h; 1 μM test compound; [^3 H]-pyrilamine remaining specifically bound; 37° C., 30 minutes; read-out: % Specific Binding at 1 μM
T1 construct: histamine-1 receptors on Hela-S3 cells (American Type Culture Collection); host or cells: HeLa-S3 cells (intact cell suspension)
T1 sequence (P35367 whole entry): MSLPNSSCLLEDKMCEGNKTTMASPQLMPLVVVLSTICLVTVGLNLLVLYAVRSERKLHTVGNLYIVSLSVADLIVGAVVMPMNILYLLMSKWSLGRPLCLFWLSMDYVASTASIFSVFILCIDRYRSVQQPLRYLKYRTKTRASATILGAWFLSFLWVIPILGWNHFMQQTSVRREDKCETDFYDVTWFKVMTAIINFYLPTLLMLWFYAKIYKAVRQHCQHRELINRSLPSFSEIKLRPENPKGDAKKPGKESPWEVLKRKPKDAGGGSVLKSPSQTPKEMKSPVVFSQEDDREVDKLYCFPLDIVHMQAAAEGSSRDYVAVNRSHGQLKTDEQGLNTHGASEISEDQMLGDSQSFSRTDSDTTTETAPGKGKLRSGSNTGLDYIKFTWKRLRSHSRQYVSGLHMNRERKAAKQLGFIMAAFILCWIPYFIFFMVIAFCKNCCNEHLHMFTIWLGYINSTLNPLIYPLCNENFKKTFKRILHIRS
Protocol: Inhibition of [^3 H]-Pyrilamine Binding to Histamine-1 Receptors on Hela-S3 Cells
The inhibition of [^3 H]-pyrilamine binding to histamine-1 receptors on Hela-S3 cells (American Type Culture Collection) was determined by isotopic labelling and filtration techniques. A suspension of the cells in buffer (25 ml, 0.5% Bovine Serum Albumin, 0.1% sodium azide, phosphate buffered saline (PBS)) was centrifuged at 1000 rpm for 5 minutes in a JOUAN CR 422 centrifuge, collected, resuspended in buffer (25 ml) and spun again. The cells were counted using a haemocytometer and resuspended in buffer to provide a final concentration of 4.5×10^6 cells ml^-1. A portion of the Hela-S3 cell suspension (1 ml) was added to each assay tube containing 25 μl of vehicle (50% DMSO/buffer) or 25 μl of test compound solution (dissolved in DMSO and diluted with sufficient PBS to give a final test concentration of 1 μM) and 25 μl of [^3 H]-pyrilamine (supplied by Amersham International and diluted with PBS to 3 nM). The tubes were mixed, incubated at 37° C. for 30 minutes and then spun at 4° C. at 2000 rpm for 2 minutes. The supernatant was removed and the cells resuspended in buffer (repeated ×2). The cells were suspended in 300 μl of a 2:1 solution of 1M sodium hydroxide and 1% sodium dodecyl sulphate. The tubes were left ovemight before the contents were tranferred to a scintillation vial, treated with 10 ml, OPTIPHASE MP scintillation fluid (OPTIPHASE MP is a trade mark) and the radioactivity counted in a scintillation counter. Non-displacable binding (NDB) was determined using Astemizole (5×10^-5 M) in place of test compounds. Defining the counts for total binding from the vehicle control sample as "TB" and the counts for total binding with antogonist as "TBA" the percentage specific binding (% SB) can be determined from the following equation.

Cc1ccc(/C(=C\CN2CCCC2)c2cccc(/C=C/CN(C)C(=O)c3ccc(Cn4c(C)nc5cnccc54)cc3)n2)cc1 [Example 3, N-Methyl-4-(1H-2-methylimidazo[4,5-c]pyridin-1-ylmethyl)-N-{3-[6-(3-pyrrolidin-1-yl-1-{4-tolyl}-prop-1E-enyl)-pyridin-2-yl]-prop-2E-enyl}-benzamide]
ED50 [1]: 0.4 mg/kg
ED50 [2]: 5.8 mg/kg
pIC50 [3]: 5.83
activity at 1 µM [4]: 19%

Cc1ccc(/C(=C\CN2CCCC2)c2cccc(/C=C/CN(C(=O)c3ccc(Cn4c(C)nc5cnccc54)cc3)C3CCCCC3)n2)cc1 [Example 4, N-Cyclohexyl-4-(1H-2-methylimidazo[4,5-c]pyridin-1-ylmethyl)-N-{3-[6-(3-pyrrolidin-1-yl-1-{4-tolyl}-prop-1E-enyl)-pyridin-2-yl]-prop-2E-enyl}-benzamide]
ED50 [1]: 0.85 mg/kg
ED50 [2]: 1.55 mg/kg
pIC50 [3]: 6.78
activity at 1 µM [4]: 42%

CCN(C/C=C/c1cccc(/C(=C/CN2CCCC2)c2ccc(C)cc2)n1)C(=O)c1ccc(Cn2c(C)nc3cnccc32)cc1 [Example 13, N-Ethyl-4-(1H-2-methylimidazo[4,5-c]pyridin-1-ylmethyl)-N-{3-[6-(3-pyrrolidin-1-yl1-{4-tolyl}-prop-1E-enyl)-pyridin-2-yl]-prop-2E-enyl}-benzamide]
ED50 [1]: 1 mg/kg
ED50 [2]: 2.55 mg/kg
pIC50 [3]: 6.62
activity at 1 µM [4]: 30%

CCCN(C/C=C/c1cccc(/C(=C/CN2CCCC2)c2ccc(C)cc2)n1)C(=O)c1ccc(Cn2c(C)nc3cnccc32)cc1 [Example 16, N-Propyl-4-(1H-2-methylimidazo[4,5-c]pyridin-1-ylmethyl)-N-{3-[6-(3-pyrrolidin-1-yl-1-{4-tolyl}-prop-1E-enyl)-pyridin-2-yl]-prop-2E-enyl}-benzamide]
% inhibition (histamine induced bronchoconstriction) ([1]; 10 mg/kg, histamine infusion one hour after dosing): 46%
ED50 [2]: 1.55 mg/kg
pIC50 [3]: 6.89
activity at 1 µM [4]: 30%

Cc1nc2cnccc2n1Cc1ccc(C(=O)N(C/C=C/c2cccc(/C(=C/CN3CCCC3)c3ccc(Cl)cc3)n2)C2CCCCC2)cc1 [Example 20, N-Cyclohexyl-4-(1H-2-methylimidazo[4,5-c]pyridin-1-ylmethyl)-N-{3-[6-(3-pyrrolidin-1-yl-1-{4-chlorophenyl}-prop-1E-enyl)-pyridin-2-yl]-prop-2E-enyl}-benzamide]
ED50 [1]: 1 mg/kg
ED50 [2]: 4.2 mg/kg
